pEC50, pIC50: −log10 of the molar value. Calls of active or inactive are those of the source. No cut-off for these calls is given here.
What was measured:
[1] = molecular target: T1, Muscarinic acetylcholine receptor M1 (Homo sapiens) (UniProt P11229); assay: (§1) Antagonist activity at human muscarinic M1 receptor; type: functional; design: concentration or dose not given beside the values
T1 sequence (whole entry): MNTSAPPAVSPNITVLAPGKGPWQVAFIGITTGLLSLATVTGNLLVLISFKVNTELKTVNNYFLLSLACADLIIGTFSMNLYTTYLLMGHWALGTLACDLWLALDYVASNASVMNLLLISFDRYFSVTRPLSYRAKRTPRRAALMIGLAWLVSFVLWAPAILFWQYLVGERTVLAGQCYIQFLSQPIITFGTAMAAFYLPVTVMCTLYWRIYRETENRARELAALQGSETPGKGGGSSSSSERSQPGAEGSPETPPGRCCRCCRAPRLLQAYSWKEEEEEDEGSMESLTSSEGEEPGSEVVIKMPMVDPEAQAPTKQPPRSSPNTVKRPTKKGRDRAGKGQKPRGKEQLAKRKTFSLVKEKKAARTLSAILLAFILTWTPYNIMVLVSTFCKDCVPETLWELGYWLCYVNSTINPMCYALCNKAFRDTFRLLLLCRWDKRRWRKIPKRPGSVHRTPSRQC

[2] = molecular target: T2, Muscarinic acetylcholine receptor M1 (Homo sapiens, UniProt P11229); assay: as §1; type: functional; conditions: for pIC50: read-out: IC50
T2 sequence (P11229 whole entry): T1 sequence (whole entry)

[3] = molecular target: T1, Muscarinic acetylcholine receptor M1 (Homo sapiens); assay: Antagonist activity at human muscarinic M1 receptor expressed in CHO cells assessed as inhibition of Ach-mediated response by calcium mobilization assay; type: functional, cell-based
[4] = molecular target: T1, Muscarinic acetylcholine receptor M1 (Homo sapiens); assay: Antagonist activity at human muscarinic M1 receptor at 30 uM; type: functional
[5] = molecular target: T3, Muscarinic acetylcholine receptor M5 (Homo sapiens, UniProt P08912); assay: Antagonist activity at human muscarinic M5 receptor by calcium mobilization assay; type: functional
T3 sequence (P08912 whole entry): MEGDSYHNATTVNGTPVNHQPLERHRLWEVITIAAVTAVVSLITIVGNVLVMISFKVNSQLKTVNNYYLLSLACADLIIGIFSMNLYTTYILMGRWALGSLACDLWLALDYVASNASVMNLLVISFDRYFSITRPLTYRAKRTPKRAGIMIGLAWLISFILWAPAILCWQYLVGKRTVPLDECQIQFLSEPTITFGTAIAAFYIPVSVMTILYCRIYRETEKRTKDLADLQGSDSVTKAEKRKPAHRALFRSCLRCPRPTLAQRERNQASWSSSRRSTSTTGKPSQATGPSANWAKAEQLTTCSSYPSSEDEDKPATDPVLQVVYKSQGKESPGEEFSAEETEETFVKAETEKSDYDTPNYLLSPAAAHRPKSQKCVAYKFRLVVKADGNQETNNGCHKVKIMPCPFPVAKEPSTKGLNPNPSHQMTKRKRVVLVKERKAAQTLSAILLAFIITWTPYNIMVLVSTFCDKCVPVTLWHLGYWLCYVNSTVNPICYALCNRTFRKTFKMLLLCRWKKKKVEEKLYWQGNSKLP

[6] = molecular target: T4, Muscarinic acetylcholine receptor M4 (Homo sapiens, UniProt P08173); assay: Antagonist activity at human muscarinic M4 receptor by calcium mobilization assay; type: functional
T4 sequence (P08173 whole entry): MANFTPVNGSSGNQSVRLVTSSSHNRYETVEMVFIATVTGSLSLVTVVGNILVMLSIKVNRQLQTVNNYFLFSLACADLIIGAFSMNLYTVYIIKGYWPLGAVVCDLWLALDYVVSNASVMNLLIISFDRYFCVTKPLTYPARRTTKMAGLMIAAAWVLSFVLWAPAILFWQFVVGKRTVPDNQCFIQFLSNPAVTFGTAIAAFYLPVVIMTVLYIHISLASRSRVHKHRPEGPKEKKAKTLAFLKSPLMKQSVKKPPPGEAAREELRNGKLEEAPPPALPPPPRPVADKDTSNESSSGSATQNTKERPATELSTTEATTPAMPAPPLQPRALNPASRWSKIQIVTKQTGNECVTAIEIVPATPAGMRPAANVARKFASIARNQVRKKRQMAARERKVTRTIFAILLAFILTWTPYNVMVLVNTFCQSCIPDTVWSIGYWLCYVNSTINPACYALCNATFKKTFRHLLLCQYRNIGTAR

[7] = molecular target: T5, Muscarinic acetylcholine receptor M2 (Homo sapiens, UniProt P08172); assay: Antagonist activity at human muscarinic M2 receptor by calcium mobilization assay; type: functional
T5 sequence (P08172 whole entry): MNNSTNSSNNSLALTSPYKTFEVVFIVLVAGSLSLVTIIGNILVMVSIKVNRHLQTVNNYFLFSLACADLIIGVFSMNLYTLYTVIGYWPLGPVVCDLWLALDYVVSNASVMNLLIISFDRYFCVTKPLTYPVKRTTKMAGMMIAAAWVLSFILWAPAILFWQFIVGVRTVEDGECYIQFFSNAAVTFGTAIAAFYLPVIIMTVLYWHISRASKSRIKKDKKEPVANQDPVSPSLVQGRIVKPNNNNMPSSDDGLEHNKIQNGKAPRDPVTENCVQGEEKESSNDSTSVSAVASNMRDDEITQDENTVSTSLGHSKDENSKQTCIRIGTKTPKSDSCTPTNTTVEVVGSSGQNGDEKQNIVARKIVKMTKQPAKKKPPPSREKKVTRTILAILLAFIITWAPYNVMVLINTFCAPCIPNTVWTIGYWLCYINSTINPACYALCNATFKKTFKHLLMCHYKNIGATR

[8] = molecular target: Muscarinic acetylcholine receptor M3 (Homo sapiens, UniProt P20309); assay: Antagonist activity at human muscarinic M3 receptor by calcium mobilization assay; type: functional
Sequence of Muscarinic acetylcholine receptor M3 (P20309 whole entry): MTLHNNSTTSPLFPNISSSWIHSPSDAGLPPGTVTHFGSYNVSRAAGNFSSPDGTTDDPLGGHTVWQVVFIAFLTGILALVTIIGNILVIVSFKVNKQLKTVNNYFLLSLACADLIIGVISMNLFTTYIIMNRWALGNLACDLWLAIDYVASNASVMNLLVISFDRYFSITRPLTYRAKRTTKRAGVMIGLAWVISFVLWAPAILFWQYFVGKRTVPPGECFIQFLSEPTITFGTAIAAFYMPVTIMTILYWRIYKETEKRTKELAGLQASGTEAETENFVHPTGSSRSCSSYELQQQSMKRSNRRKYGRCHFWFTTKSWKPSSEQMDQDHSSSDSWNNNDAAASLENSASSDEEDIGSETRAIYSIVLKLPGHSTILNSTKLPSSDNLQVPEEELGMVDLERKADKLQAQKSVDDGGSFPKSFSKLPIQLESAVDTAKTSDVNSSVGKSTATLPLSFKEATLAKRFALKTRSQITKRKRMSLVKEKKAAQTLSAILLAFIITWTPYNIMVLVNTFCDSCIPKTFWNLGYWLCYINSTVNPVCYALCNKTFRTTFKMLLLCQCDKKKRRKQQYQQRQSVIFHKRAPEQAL

SMILES | Activity [1] | pIC50 [2] | Activity [4] | other results
CN1CCN(C(=O)[C@](F)(Cc2ccccc2)c2ccccc2)CC1 (mixture of isomers) | 2.1% | 5.62 |  | 
CN1CCCN(C(=O)C(Cc2ccccc2)c2ccccc2)CC1 (configuration not stated) | 2% | 7.00 |  | 
CN1CCN(C(=O)[C@@H](Cc2ccccc2)c2ccccc2)CC1 | inactive |  |  | 
CN1CCN(C(=O)C(Cc2ccncc2)c2ccccc2)CC1 (configuration not stated) | 3.5% | 6.06 |  | 
CN1CCN(C(=O)[C@H](Cc2ccccc2)c2ccccc2)CC1 |  | 7.48 |  | inhibition [3]: Dose-dependent effect
CC1CCN(C)CCN1C(=O)C(Cc1ccccc1)c1ccccc1 (configuration not stated) | 29.6% | < 5.00 | inactive | 
CN1CCN(C(=O)C2(c3ccccc3)CC2c2ccccc2)CC1 (configuration not stated) |  | 5.60 |  | 
CC(C)N1CCCN(C(=O)C(Cc2ccccc2)c2ccccc2)CC1 (configuration not stated) | 2.4% | 7.00 |  | 
CCN1CCN(C(=O)C(Cc2ccccc2)c2ccccc2)CC1(C)C (configuration not stated) | 1.5% | 7.05 |  | 
CN1CCN(C(=O)[C@@](F)(Cc2ccccc2)c2ccccc2)CC1 (mixture of isomers) | 2.7% | 7.74 |  | inhibition [3]: Dose-dependent effect; pIC50 [5]: 7.09; pIC50 [6]: 6.85; pIC50 [7]: < 5.82; pIC50 [8]: < 5.82
O=C(C(Cc1ccccc1)c1ccccc1)N1CCNCC1 (configuration not stated) | 26.1% | < 5.00 | inactive | 
CN1CCN(C(=O)C(F)(Cc2ccccc2)c2ccccc2)CC1 (configuration not stated) | 3.1% | 7.54 |  | pEC50 [2]: 7.55
CC(C)N1CCN(C(=O)C(Cc2ccccc2)c2ccccc2)CC1 (configuration not stated) | 1.3% | 6.36 |  | 
CCN1CCCN(C(=O)C(Cc2ccccc2)c2ccccc2)CC1 (configuration not stated) | 2.2% | 7.42 |  | 
CN(C)CCN(C)C(=O)C(Cc1ccccc1)c1ccccc1 (configuration not stated) | 37.1% | < 5.00 | inactive | 
O=C(C(Cc1ccccc1)c1ccccc1)N1CCN2CCCCC2C1 (configuration not stated) | 0.5% | 5.70 |  | 
COCCN1CCN(C(=O)C(Cc2ccccc2)c2ccccc2)CC1 (configuration not stated) | 10.9% | < 5.00 | inactive | 
O=C(C(Cc1ccccc1)c1ccccc1)N1CCN(c2ccncc2)CC1 (configuration not stated) | 28.5% | < 5.00 | inactive | 
CCN1CCN(C(=O)C(Cc2ccccc2)c2ccccc2)CC1 (configuration not stated) | 1.8% | 6.24 |  | 
CN1CCN(C(=O)[C@@H](Oc2ccccc2)c2ccccc2)CC1 (racemic) | 107% | < 5.00 |  | 

SMILES | Activity [1] | pIC50 [2] | Activity [4] | other results
CN1CCN(C(=O)C(C)(Cc2ccccc2)c2ccccc2)CC1 (configuration not stated) | 39.1% | < 5.00 |  | 
CN(C)CCOC(=O)C(Cc1ccccc1)c1ccccc1 (configuration not stated) | 1.5% | 6.85 |  | 
O=C(C(Cc1ccccc1)c1ccccc1)N1CCN(CC(F)(F)F)CC1 (configuration not stated) | inactive |  |  | 
CN1CCC(N2CCN(C(=O)C(Cc3ccccc3)c3ccccc3)CC2)CC1 (configuration not stated) | inactive |  |  | 
CC(C)CN1CCN(C(=O)C(Cc2ccccc2)c2ccccc2)CC1 (configuration not stated) | 35.9% | < 5.00 | inactive | 
O=C(C(Cc1ccccc1)c1ccccc1)N1CCC(N2CCCC2)CC1 (configuration not stated) | 3.5% | 5.42 |  | 
CN1CCN(C(=O)[C@H](Oc2ccccc2)c2ccccc2)CC1 (mixture of isomers) | 3.4% | 6.62 |  | 
O=C(C(Cc1ccccc1)c1ccccc1)N1CCCNCC1 (configuration not stated) | 24.3% | < 5.00 | inactive | 
CN1CCN(C(=O)C(Cc2ccccc2)c2ccccc2)CC1 (racemic) | 2.4% | 7.36 |  | 
CN1CCN(C(=O)C(Cc2ccccc2)c2ccccc2)C(c2ccccc2)C1 (configuration not stated) | 17.2% | < 5.00 | inactive | 
CN1C[C@@H]2CN(C(=O)C(Cc3ccccc3)c3ccccc3)C[C@@H]2C1 (some centres not stated) | 6.7% | < 5.00 | inactive | 
CC1CN(C(=O)C(Cc2ccccc2)c2ccccc2)CCN1C (configuration not stated) | 1.4% | 7.00 |  | 
C[N+]1(C)CCN(C(=O)C(Cc2ccccc2)c2ccccc2)CC1 (configuration not stated) | 8.7% | < 5.00 | inactive | 
CN(C)CCNC(=O)C(Cc1ccccc1)c1ccccc1 (configuration not stated) | 3.5% | < 5.00 | inactive | 
O=C(C(Cc1ccccc1)c1ccccc1)N1CC[C@H]2CCCN2CC1 (some centres not stated) | 6.43% | 6.43 |  | IC50 ([2]; read-out: pIC50 (converted)): 2140 nM
CN1CCN(C(=O)C(Cc2cccnc2)c2ccccc2)CC1 (configuration not stated) | 1.1% | 6.30 |  | 
CCN1CCN(C(=O)C(Cc2ccccc2)c2ccccc2)CC1C (configuration not stated) | 1.4% | 6.59 |  | 
CN1CCN(C(=O)C(Cc2ccccc2)c2ccccc2)CC1c1ccccc1 (configuration not stated) | 62.8% | < 5.00 | inactive | 
CN1CCN(C(=O)/C(=C\c2ccccc2)c2ccccc2)CC1 |  | 6.74 |  | 
